Results: article PMC6560211, “ApoAI-derived peptide increases glucose tolerance and prevents formation of atherosclerosis in mice” (Diabetologia, 2019)
No end group written: not given here.

Tests used:
[1] = Peptide homogeneity (particle size) by dynamic light scattering; type: physicochemical
Experimental: Peptide (lyophilised powder) produced by Red Glead (Lund, Sweden) was reconstituted in Milli-Q water and then either used directly or mixed in a 1:1 ratio with 6 mol/l guanidine HCl in 2× PBS to give a monodisperse solution, followed by desalting using a column equilibrated with PBS, pH 7.4, using ÄKTAxpress fast protein LC (GE Healthcare, Uppsala, Sweden). Peptide integrity was analysed using circular dichroism spectroscopy. Peptide solubility was assayed at Red Glead using HPLC. Peptide stability in physiologic buffer or blood plasma (human or mouse) over 2 h was assayed at the Science for Life Laboratory (Uppsala, Sweden). For detailed methods, please refer to the electronic supplementary material (ESM) Methods.
The peptide RG54 was synthesised with natural amino acids and then modified with an acetylation cap on the N-terminus in order to reduce the susceptibility for proteolytic degradation by […] (ESM Fig. 3a). […] Peptide integrity following the denaturation/refolding procedure was confirmed using gel electrophoresis and circular dichroism spectroscopy analyses (ESM Fig. 3d,e) and by peptide stability assays (buffer or plasma) (ESM Fig. 3f).
ESM Figure 3. Peptide characterization for native or refolded RG54.
(a) Full peptide sequence. Particle size distribution of RG54 was analysed by DLS and frequency curves generated for Native (b) or Refolded (c) peptide. […]

INS-1E cells = experiment: Glucose-stimulated insulin secretion assay; type: cell-based, rat; details: 2 h preincubation with RG54 at 3.3 mmol/l glucose, then 1 h at 20 mmol/l glucose without peptide; ELISA; three independent experiments
Experimental: INS-1E cells were preincubated for 2 h with HEPES KRB supplemented with 3.3 mmol/l glucose and RG54, then stimulated for 1 h with HEPES KRB supplemented with either 3.3 or 20 mmol/l glucose but no RG54 peptide, and insulin secretion was analysed using ELISA (Mercodia, Uppsala, Sweden). See ESM Methods for more details.
Fig. 3 RG54 induces skeletal muscle glucose uptake and primes INS-1E cells to increase GSIS. (a) C2C12 skeletal muscle myotubes were incubated in the absence or presence of different concentrations of RG54 or with insulin, followed by glucose uptake measurements. Values are means ± SEM from three independent experiments. *p≤0.05, **p≤0.01, ***p≤0.001 vs control. […] Insulin secretion was measured after 1 h glucose challenge. […]
Peptide concentration was determined at 205 nm using a NanoDrop 2000c spectrophotometer (Thermo Scientific) and integrity was analysed by Tris-Tricine SDS-PAGE followed by coomassie staining or by circular dichroism spectroscopy (CD). […]
The primary goal of this study was to investigate the anti -diabetic and anti-atherosclerotic efficacy of a novel ApoA -I derived peptide. Using a range of in vitro models, we assessed the effects of the peptide on HDL formation, cholesterol efflux, insulin secretion, and non -insulin dependent glucose uptake. […] Peptide effects were measured relative to full length ApoA -I and vehicle controls. […]

Ac-AEYHAKATEHLSTLSEKAKPALEDLRQGLLPVLESFKVSFLSALEEYTKKLNTQ [RG54]
homogeneity (DLS) after chemical denaturation and refolding ([1]; 6 mol/l guanidine HCl in 2x PBS 1:1, desalted into PBS pH 7.4): monodisperse preparations | homogeneity, dynamic size range (DLS) ([1]; native peptide reconstituted in Milli-Q water, five individual experiments): significant inter- and intra-sample heterogeneity | GSIS compared with control cells (INS-1E cells): up to a twofold increase
